Measured values from ChEMBL document CHEMBL4342442, “Usnic Acid Enaminone-Coupled 1,2,3-Triazoles as Antibacterial and Antitubercular Agents” (J Nat Prod, 2020).

Key:
Assay type in all cases: functional
[1] = system: Mycobacterium tuberculosis; experiment: Antitubercular activity against Mycobacterium tuberculosis H37Rv assessed as log reduction in bacterial population at 10 ug/ml under starvation condition after 7 days by MPN assay
[2] = system: Mycobacterium tuberculosis; experiment: Antitubercular activity against Mycobacterium tuberculosis H37Rv assessed as reduction in microbial growth after 7 days by alamar blue assay; settings: 168 h
[3] = system: Pseudomonas aeruginosa; experiment: Antibacterial activity against Pseudomonas aeruginosa MTCC 741 assessed as reduction in microbial growth after 24 hrs by CLSI based microdilution method; settings: MTCC 741, 24 h
[4] = system: Staphylococcus epidermidis; experiment: Antibacterial activity against Staphylococcus epidermidis assessed as reduction in microbial growth after 24 hrs by CLSI based microdilution method
[5] = system: Bacillus subtilis; experiment: Antibacterial activity against Bacillus subtilis MTCC 441 assessed as reduction in microbial growth after 24 hrs by CLSI based microdilution method; settings: MTCC 441, 24 h
[6] = system: Staphylococcus aureus; experiment: Antibacterial activity against Staphylococcus aureus MTCC 96 assessed as reduction in microbial growth after 24 hrs by CLSI based microdilution method; settings: MTCC 96, 24 h
[7] = system: Klebsiella pneumoniae; experiment: Antibacterial activity against Klebsiella pneumoniae MTCC 618 assessed as reduction in microbial growth after 24 hrs by CLSI based microdilution method; settings: MTCC 618, 24 h
[8] = system: Escherichia coli; experiment: Antibacterial activity against Escherichia coli MTCC 443 assessed as reduction in microbial growth after 24 hrs by CLSI based microdilution method; settings: MTCC 443, 24 h
[9] = system: Klebsiella pneumoniae; experiment: Antibacterial activity against Klebsiella pneumoniae MTCC 618 assessed as diameter of zone of inhibition at 200 ug/ml after 24 hrs by agar well diffusion method; settings: MTCC 618, 24 h, read-out: DIZ
[10] = system: Staphylococcus aureus; experiment: Antibacterial activity against Staphylococcus aureus MTCC 96 assessed as diameter of zone of inhibition at 200 ug/ml after 24 hrs by agar well diffusion method; settings: MTCC 96, 24 h, read-out: DIZ
[11] = system: Staphylococcus epidermidis; experiment: Antibacterial activity against Staphylococcus epidermidis assessed as diameter of zone of inhibition at 200 ug/ml after 24 hrs by agar well diffusion method; settings: read-out: DIZ
[12] = system: Bacillus subtilis; experiment: Antibacterial activity against Bacillus subtilis MTCC 441 assessed as diameter of zone of inhibition at 200 ug/ml after 24 hrs by agar well diffusion method; settings: MTCC 441, 24 h, read-out: DIZ
[13] = system: Escherichia coli; experiment: Antibacterial activity against Escherichia coli MTCC 443 assessed as diameter of zone of inhibition at 200 ug/ml after 24 hrs by agar well diffusion method; settings: MTCC 443, 24 h, read-out: DIZ
[14] = system: Pseudomonas aeruginosa; experiment: Antibacterial activity against Pseudomonas aeruginosa MTCC 741 assessed as diameter of zone of inhibition at 200 ug/ml after 24 hrs by agar well diffusion method; settings: MTCC 741, 24 h, read-out: DIZ

For `CO[C@H]1/C=C/O[C@@]2(C)Oc3c(C)c(O)c4c(O)c(c(/C=N/N5CCN(C)CC5)c(O)c4c3C2=O)NC(=O)/C(C)=C\C=C\[C@H](C)[C@H](O)[C@@H](C)[C@@H](O)[C@@H](C)[C@H](OC(C)=O)[C@@H]1C` [RIFAMPIN], which FC [1] is on record?
Its FC is 1.8.

What about the MIC [2] of the same compound?
Its MIC is 0.6 µM.

`COc1ccc(C(=O)Cn2cc(CN/C(C)=C3\C(=O)C=C4Oc5c(C(C)=O)c(O)c(C)c(O)c5C4(C)C3=O)nn2)cc1` (stereo not drawn) was tested. Which MIC [2] did it give?
The MIC was 43.7 µM.

For `CC(=O)c1c(O)c(C)c(O)c2c1OC1=CC(=O)/C(=C(/C)NCc3cn(CC(=O)N4CCN(c5ccccn5)CC4)nn3)C(=O)C12C` (stereo not drawn), which MIC [2] is on record?
Its MIC is 39.8 µM.

With `CC(=O)c1c(O)c(C)c(O)c2c1OC1=CC(=O)/C(=C(/C)NCc3cn(CC(=O)c4ccc(C#N)cc4)nn3)C(=O)C12C` (stereo not drawn) as the compound, how does the MIC [2] read?
Its MIC is 44.1 µM.

Which results are given for `CC(=O)c1c(O)c(C)c(O)c2c1OC1=CC(=O)/C(=C(/C)NCc3cn(CC(=O)c4ccc(F)cc4)nn3)C(=O)C12C` (stereo not drawn)?
MIC [3]: > 350 µM; MIC [4]: > 350 µM; MIC [5]: 347 µM; MIC [2]: 11.2 µM; MIC [6]: > 350 µM; MIC [7]: > 350 µM; MIC [8]: > 350 µM

For `CC(=O)c1c(O)c(C)c(O)c2c1OC1=CC(=O)/C(=C(/C)NCc3cn(CC(=O)c4cccc5ccccc45)nn3)C(=O)C12C` (stereo not drawn), which MIC [2] is on record?
The MIC was 42.2 µM.

`COc1cccc(C(=O)Cn2cc(CN/C(C)=C3\C(=O)C=C4Oc5c(C(C)=O)c(O)c(C)c(O)c5C4(C)C3=O)nn2)c1` (stereo not drawn) was tested. Which MIC [2] did it give?
Its MIC is 43.7 µM.

How did the MIC [2] turn out when `CC(=O)c1c(O)c(C)c(O)c2c1OC1=CC(=O)/C(=C(/C)NCc3cn(CC(=O)c4ccc5c(c4)Cc4ccccc4-5)nn3)C(=O)C12C` (stereo not drawn) was run?
Its MIC is 9.9 µM.

Which results are given for `CC1(C)S[C@@H]2[C@H](NC(=O)Cc3ccccc3)C(=O)N2[C@H]1C(=O)O` [PENICILLIN G]?
MIC [3]: 27.8 µM; MIC [4]: 7 µM; zone of inhibition at 200 µg/mL [9]: 25 mm; zone of inhibition at 200 µg/mL [10]: 28 mm; MIC [5]: 3.5 µM; zone of inhibition at 200 µg/mL [11]: 26 mm; zone of inhibition at 200 µg/mL [12]: 28 mm; MIC [6]: 3.5 µM; zone of inhibition at 200 µg/mL [13]: 24 mm; MIC [7]: 27.8 µM; MIC [8]: 27.8 µM; zone of inhibition at 200 µg/mL [14]: 23 mm

`CC(=O)c1c(O)c(C)c(O)c2c1OC1=CC(=O)/C(=C(/C)NCc3cn(CC(=O)c4ccc(OC(F)(F)F)cc4)nn3)C(=O)C12C` (stereo not drawn) was tested. Which MIC [2] did it give?
Its MIC is 39.9 µM.

With `CC(=O)c1c(O)c(C)c(O)c2c1OC1=CC(=O)/C(=C(/C)NCc3cn(CC(=O)N4CCN(c5ccc(C(F)(F)F)cc5)CC4)nn3)C(=O)C12C` (stereo not drawn) as the compound, how does the MIC [2] read?
The MIC was 36 µM.

How did the MIC [2] turn out when `CC[C@@H](CO)NCCN[C@@H](CC)CO` [ETHAMBUTOL] was run?
Its MIC is 7.6 µM.

How did the FC [1] turn out when `COc1c(N2C[C@@H]3CCCN[C@@H]3C2)c(F)cc2c(=O)c(C(=O)O)cn(C3CC3)c12` [MOXIFLOXACIN] was run?
The FC was 2.

With `CC(=O)c1c(O)c(C)c(O)c2c1OC1=CC(=O)/C(=C(/C)NCc3cn(CC(=O)c4ccc([N+](=O)[O-])cc4)nn3)C(=O)C12C` (stereo not drawn) as the compound, how does the MIC [2] read?
Its MIC is 42.6 µM.

With `CC(=O)c1c(O)c(C)c(O)c2c1OC1=CC(=O)/C(=C(/C)NCc3cn(CC(=O)c4ccc(C(F)(F)F)cc4)nn3)C(=O)C12C` (stereo not drawn) as the compound, how does the MIC [2] read?
The MIC was 41 µM.

For `COc1ccc2cc(C(=O)Cn3cc(CN/C(C)=C4\C(=O)C=C5Oc6c(C(C)=O)c(O)c(C)c(O)c6C5(C)C4=O)nn3)ccc2c1` (stereo not drawn), which MIC [2] is on record?
Its MIC is 40.2 µM.

Which MIC [2] does the source give for `CC(=O)c1c(O)c(C)c(O)c2c1OC1=CC(=O)/C(=C(/C)NCc3cn(CC(=O)N4CCN(C(=O)OC(C)(C)C)CC4)nn3)C(=O)C12C` (stereo not drawn) here?
The MIC was 38.4 µM.

With `CN[C@@H]1[C@H](O[C@H]2[C@H](O[C@H]3[C@H](O)[C@@H](O)[C@H](N=C(N)N)[C@@H](O)[C@@H]3N=C(N)N)O[C@@H](C)[C@]2(O)C=O)O[C@@H](CO)[C@H](O)[C@H]1O` [STREPTOMYCIN] as the compound, how does the MIC [3] read?
Its MIC is 8.1 µM.

And the MIC [4]?
The MIC was 4 µM.

What about the zone of inhibition at 200 µg/mL [9] of the same compound?
The zone of inhibition at 200 µg/mL was 26 mm.

What about the zone of inhibition at 200 µg/mL [10] of the same compound?
The zone of inhibition at 200 µg/mL was 23 mm.

What about the MIC [5] of the same compound?
The MIC was 8.1 µM.

What about the zone of inhibition at 200 µg/mL [11] of the same compound?
Its zone of inhibition at 200 µg/mL is 25 mm.

What about the zone of inhibition at 200 µg/mL [12] of the same compound?
Its zone of inhibition at 200 µg/mL is 24 mm.

What about the MIC [6] of the same compound?
The MIC was 4 µM.

What about the zone of inhibition at 200 µg/mL [13] of the same compound?
The zone of inhibition at 200 µg/mL was 23 mm.

And the MIC [7]?
The MIC was 8.1 µM.

What about the MIC [8] of the same compound?
Its MIC is 8.1 µM.

What about the zone of inhibition at 200 µg/mL [14] of the same compound?
The zone of inhibition at 200 µg/mL was 28 mm.

Which MIC [2] does the source give for `CC(=O)c1c(O)c(C)c(O)c2c1OC1=CC(=O)/C(=C(/C)NCc3cn(CC(=O)c4ccc(Br)s4)nn3)C(=O)C12C` (stereo not drawn) here?
The MIC was 39.8 µM.
